The text below walks through data of US10975055B2, “Inhibitors of interleukin-1 receptor-associated kinases and uses thereof” (Dana-Farber Cancer Institute, Inc., priority 2016, dated 2021).

Like-named read-outs stand apart in the source and are kept apart here.

Data set [1] addresses IRAK1 (Homo sapiens, UniProt P51617). The experiment in a line: IRAK1 Alexa kinase assay (TR-FRET, ADP tracer). The data set is classed as biochemical. The procedure:
(§1) Select compounds described herein were evaluated for structure-activity analyses. For IRAK1, the following Alexa kinase assay procedure was followed: in the absence of an inhibitor, ADP formed by a kinase reaction will displace an Alexa Fluor 647 dye-labeled ADP tracer from an Eu3+-labeled anti-ADP antibody, resulting in a decrease in the time-resolved fluorescence resonance energy transfer (TR-FRET) signal. In the presence of an inhibitor, the amount of ADP formed by the kinase reaction is reduced, and the resulting intact antibody-tracer interaction produces a high TR-FRET signal. For IRAK4, the following Z-lyte kinase assay procedure was followed: phosphorylation-dependent protease susceptibility of a double-labeled peptide substrate is detected using fluorescence resonance energy transfer (FRET).
For orientation: In TR-FRET formats the signal depends on donor and acceptor labels being close together.

The target in data set [2] is T1, IRAK4 (Homo sapiens, UniProt Q9NWZ3).
T1 sequence (Q9NWZ3 1-460): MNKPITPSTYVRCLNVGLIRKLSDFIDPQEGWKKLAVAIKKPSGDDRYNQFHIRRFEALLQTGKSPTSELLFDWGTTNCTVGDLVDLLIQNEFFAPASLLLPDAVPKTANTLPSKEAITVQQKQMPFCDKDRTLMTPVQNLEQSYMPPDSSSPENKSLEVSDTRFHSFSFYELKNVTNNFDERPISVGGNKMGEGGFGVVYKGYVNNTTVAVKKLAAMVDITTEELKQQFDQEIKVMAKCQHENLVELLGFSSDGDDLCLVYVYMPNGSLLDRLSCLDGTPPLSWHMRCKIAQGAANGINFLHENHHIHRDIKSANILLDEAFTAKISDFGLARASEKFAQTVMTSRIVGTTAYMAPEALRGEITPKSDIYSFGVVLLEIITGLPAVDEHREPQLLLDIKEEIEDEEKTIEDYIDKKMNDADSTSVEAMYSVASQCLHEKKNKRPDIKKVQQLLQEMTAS
The experiment in a line: IRAK4 Z-lyte kinase assay (FRET peptide substrate). The data set is classed as biochemical. The procedure:
as §1

Data set [3] relates to MYD88 mutated WM and ABC-DLBCL cells. Kind of data set: Synergism evaluation with Ibrutinib: tumor cell killing. The data set is classed as cell-based. The following applies: for Combination Index (CI): synergism evaluation with Ibrutinib.
Data set [4] has as its target IRAK1 cysteine 302 (Homo sapiens, UniProt P51617). The experiment in a line: Mass spec labelling studies. The data set is classed as binding.
For data set [5], the system named is Waldenstrom's, DLBCL, and Burkitt Lymphoma cell lines. Kind of data set: Cellular data for covalent IRAK1 inhibitors: cell killing. The data set is classed as cell-based.
Data set [6] deals with kinome (off-targets YSK4 and MEK3). Kind of data set: Kinome selectivity (kinome tree). The data set is classed as biochemical.
In data set [7] the test system is NF-κB activation. The experiment in a line: NF-κB activation under combination with Ibrutinib. The data set is classed as cell-based.
Data set [8] in a line: In vivo PK studies. The following applies: dosed IV.
In data set [9] the test system is WM patients' bone marrow LPCs. Kind of data set: Tumor cell killing in WM patients' bone marrow LPCs. The data set is classed as cell-based, human. The conditions noted are these: combination with BTK inhibitor Ibrutinib.
The subject of data set [10] is MYD88 mutated WM and ABC DLBCL cells. Kind of data set: Antiproliferative effects, single agent. The data set is classed as cell-based.

Sequence of IRAK1 (P51617 whole entry): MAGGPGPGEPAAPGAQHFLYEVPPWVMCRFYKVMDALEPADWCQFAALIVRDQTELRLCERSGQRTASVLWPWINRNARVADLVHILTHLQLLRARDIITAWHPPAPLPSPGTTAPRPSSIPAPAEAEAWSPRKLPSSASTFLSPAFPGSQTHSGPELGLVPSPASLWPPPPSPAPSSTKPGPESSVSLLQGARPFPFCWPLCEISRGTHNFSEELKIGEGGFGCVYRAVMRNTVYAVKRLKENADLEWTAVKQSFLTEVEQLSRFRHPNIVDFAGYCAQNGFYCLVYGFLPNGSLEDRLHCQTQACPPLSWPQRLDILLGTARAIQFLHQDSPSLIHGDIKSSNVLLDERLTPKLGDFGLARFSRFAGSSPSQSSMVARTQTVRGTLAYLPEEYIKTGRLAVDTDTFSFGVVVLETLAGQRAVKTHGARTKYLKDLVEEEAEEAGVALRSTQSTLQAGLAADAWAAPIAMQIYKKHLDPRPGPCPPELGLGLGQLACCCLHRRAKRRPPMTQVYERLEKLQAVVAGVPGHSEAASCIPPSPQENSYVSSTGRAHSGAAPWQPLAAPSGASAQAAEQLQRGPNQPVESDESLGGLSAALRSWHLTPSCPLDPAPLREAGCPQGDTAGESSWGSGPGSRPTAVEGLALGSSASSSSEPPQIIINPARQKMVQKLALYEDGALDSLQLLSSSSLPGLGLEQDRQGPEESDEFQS
Sequence of IRAK1 cysteine 302 (P51617 whole entry): as above

A word on the IC50: it is the point on the concentration scale where inhibition reaches its midpoint. Take `CCC(=O)Nc1cccc(C(=O)Nc2ccc(NC(=O)c3cccc(-c4ccn[nH]4)n3)cc2)c1` [JH-X-159]: the 50% inhibitory concentration (IC50) in data set [1] (Table 1, read-out: IC50 IRAK1) was 259 nM; in data set [2] (Table 1, read-out: IC50 IRAK4), above 10000 nM.

For `C=CC(=O)N[C@H]1CCC[C@@H](NC(=O)c2ccc(NC(=O)c3cccc(-c4ccn[nH]4)n3)cc2)C1` [JH-XII-200-2, N-(4-(((1R,3S)-3-acrylamidocyclohexyl)carbamoyl)phenyl)-6-(1H-pyrazol-5-yl)picolinamide], the figures for the IC50 in [1] (read-out: IRAK1 IC50) and in data set [2] (read-out: IRAK4 IC50) were 24 nM and 648 nM, respectively.

For “N-(4-(4-acrylamidobenzamido)phenyl)-[2,3′-bipyridine]-6-carboxamide [JH-XIII-77]”, the IC50 in [1] (read-out: IRAK1 IC50) was 80 nM; in [2] (Table 1, read-out: IC50 IRAK4) it was above 10000 nM; in data set [2] (read-out: IRAK4 IC50), above 10000 nM.

For the molecule `C=CC(=O)Nc1cccc(C(=O)Nc2cccc(NC(=O)c3cccc(-c4ccn[nH]4)n3)c2)c1` [JH-X-119-04], the IC50 in [1] (Table 1, read-out: IC50 IRAK1) was 25 nM; in data set [2] (Table 1, read-out: IC50 IRAK4), above 10000 nM.

Regarding `C=CC(=O)N[C@H]1CC[C@H](C(=O)Nc2ccc(NC(=O)c3cccc(-c4ccn[nH]4)n3)cc2)CC1` [JH-XII-205-1, N-(4-((1r,4r)-4-acrylamidocyclohexane-1-carboxamido)phenyl)-6-(1H-pyrazol-5-yl)picolinamide], the IC50 in data set [1] (read-out: IRAK1 IC50) was 88 nM; in data set [2] (read-out: IRAK4 IC50), 1110 nM.

As to `CN(C)C/C=C/C(=O)Nc1cccc(C(=O)Nc2ccc(NC(=O)c3cccc(-c4ccn[nH]4)n3)cc2)c1` [JH-X-198], the IC50 in data set [1] (Table 1, read-out: IC50 IRAK1) is 51 nM; in data set [2] (Table 1, read-out: IC50 IRAK4), above 10000 nM. For the same molecule, the “Combination Index (CI)” value in data set [3] is on record as below 1.0.

Turning to `C=CC(=O)Nc1ccc(C(=O)Nc2ccc(NC(=O)c3cccc(-c4ccn[nH]4)n3)cc2)cc1` [JH-X-119-02], the IC50 in data set [1] (Table 1, read-out: IC50 IRAK1) was 47 nM; in data set [2] (Table 1, read-out: IC50 IRAK4), above 10000 nM.

Regarding `C=CC(=O)Nc1cccc(C(=O)Nc2ccc(NC(=O)c3cccc(-c4cnn(C)c4)n3)cc2)c1` [JH-XIII-80-2, N-(4-(3-acrylamidobenzamido)phenyl)-6-(1-methyl-1H-pyrazol-4-yl)picolinamide], the IC50 was 67 nM in [1] (read-out: IRAK1 IC50); above 10000 nM in [2] (Table 1, read-out: IC50 IRAK4); above 10000 nM in [2] (read-out: IRAK4 IC50).

As usually defined, the Cmax is the maximum level reached in the sampled fluid or tissue. One may read the clearance as the volume of plasma or blood freed of the substance per unit of time. Low readings indicate inefficient removal, high ones efficient removal. The half-life is the time needed for the level to fall by half in the phase considered. Low readings indicate fast loss, high ones slow loss. Take `C=CC(=O)Nc1cccc(C(=O)Nc2ccc(NC(=O)c3cccc(-c4ccn[nH]4)n3)cc2)c1` [JH-X-119-01]: in [4], the “labelling of IRAK1 (mass spec)” value is on record as “irreversibly labelled IRAK1 at cysteine 302”. For the same molecule, the IC50 in data set [1] (read-out: IRAK1 IC50) was 9.3 nM. Besides, the “cell killing ED50” value in data set [5] is “micromolar”. For the same molecule, in data set [6], the “kinome selectivity: off-target inhibition” value is “only two kinases, YSK4 and MEK3”. The IC50 in [2] (Table 1, read-out: IC50 IRAK4) is above 10000 nM. For the same molecule, in data set [2] (at concentrations up to 10 μM), the “inhibition of IRAK4” value is “no inhibition”. For the same molecule, the “NF-κB activation, combination with Ibrutinib” value in data set [7] is reported as “suppression”. In [8], this molecule showed a Cmax of 9.95 µM, a clearance of 18.8 mL/min/kg and a half-life of 1.61 h. In data set [9], the “tumor cells killing in WM patients' bone marrow LPCs” value is reported as “more robust tumor cells killing”. For the same molecule, in data set [10], the antiproliferative effects entry is “antiproliferative effects”. For the same molecule, the “tumor cell killing, combination with Ibrutinib” value in data set [3] (combination with Ibrutinib, MYD88 mutated WM and ABC-DLBCL cells) was “synergistic tumor cell killing”. The “Combination Index (CI)” value in [3] was below 1.0.

In the case of `C=CC(=O)NC12CC(NC(=O)c3ccc(NC(=O)c4cccc(-c5ccn[nH]5)n4)cc3)(C1)C2` [JH-XII-200-3, N-(4-((3-acrylamidobicyclo[1.1.1]pentan-1-yl)carbamoyl)phenyl)-6-(1H-pyrazol-5-yl)picolinamide], the figures for the IC50 in data set [1] (read-out: IRAK1 IC50) and in data set [2] (read-out: IRAK4 IC50) were 51 nM and 607 nM, respectively.

As to `C=CC(=O)N[C@H]1CC[C@H](NC(=O)c2ccc(NC(=O)c3cccc(-c4ccn[nH]4)n3)cc2)CC1` [JH-XII-200-1, N-(4-(((1r,4r)-4-acrylamidocyclohexyl)carbamoyl)phenyl)-6-(1H-pyrazol-5-yl)picolinamide], the IC50 in data set [1] (read-out: IRAK1 IC50) worked out at 46 nM; in data set [2] (read-out: IRAK4 IC50), 154 nM.

In the case of `C=CC(=O)Nc1cccc(C(=O)Nc2ccc(NC(=O)c3cccc(-c4cn[nH]c4)n3)cc2)c1` [JH-XIII-80-3, N-(4-(3-acrylamidobenzamido)phenyl)-6-(1H-pyrazol-4-yl)picolinamide], the IC50 is 22 nM in data set [1] (read-out: IRAK1 IC50); above 10000 nM in data set [2] (Table 1, read-out: IC50 IRAK4); above 10000 nM in data set [2] (read-out: IRAK4 IC50).

Consider `C=CC(=O)Nc1cccc(-c2cn(-c3ccc(NC(=O)c4cccc(-c5ccn[nH]5)n4)cc3)nn2)c1` [JH-XIII-96-2, N-(4-(4-(3-acrylamidophenyl)-1H-1,2,3-triazol-1-yl)phenyl)-6-(1H-pyrazol-5-yl)picolinamide], for which the IC50 was 40 nM in data set [1] (read-out: IRAK1 IC50); above 10000 nM in data set [2] (Table 1, read-out: IC50 IRAK4); above 10000 nM in data set [2] (read-out: IRAK4 IC50).

Consider `C=CC(=O)Nc1ccc(C(=O)Nc2cccc(NC(=O)c3cccc(-c4ccn[nH]4)n3)c2)cc1` [JH-X-119-03], for which the IC50 in data set [1] (Table 1, read-out: IC50 IRAK1) worked out at 55 nM.

In the case of `C=CC(=O)N[C@H]1CCC[C@@H](C(=O)Nc2ccc(NC(=O)c3cccc(-c4ccn[nH]4)n3)cc2)C1` [JH-XII-205-2, N-(4-((1R,3S)-3-acrylamidocyclohexane-1-carboxamido)phenyl)-6-(1H-pyrazol-5-yl)picolinamide], the IC50 was 72 nM in [1] (read-out: IRAK1 IC50); above 10000 nM in data set [2] (Table 1, read-out: IC50 IRAK4); above 10000 nM in [2] (read-out: IRAK4 IC50).

`C=CC(=O)Nc1cccc(C(=O)Nc2ccc(NC(=O)c3cccc(-c4cnoc4)n3)cc2)c1` [JH-XIII-80-1, N-(4-(3-acrylamidobenzamido)phenyl)-6-(isoxazol-4-yl)picolinamide]: the IC50 in data set [1] (read-out: IRAK1 IC50) is 12 nM; in data set [2] (Table 1, read-out: IC50 IRAK4) it was above 10000 nM; in data set [2] (read-out: IRAK4 IC50), above 10000 nM.
